Data reported in article PMC6263166 (The protein journal, 2011).
Where two headings read alike, the source gives them in different places.

Tests used:
CYP1A2 [1] = biological target: T1, CYP1A2 (Homo sapiens, UniProt P05177); settings: for concentrations at which hCYP1A2 was significantly inhibited: p < 0.05 compared to DMSO control, tested 0.005-1.5 μM
T1 sequence (P05177 1-516): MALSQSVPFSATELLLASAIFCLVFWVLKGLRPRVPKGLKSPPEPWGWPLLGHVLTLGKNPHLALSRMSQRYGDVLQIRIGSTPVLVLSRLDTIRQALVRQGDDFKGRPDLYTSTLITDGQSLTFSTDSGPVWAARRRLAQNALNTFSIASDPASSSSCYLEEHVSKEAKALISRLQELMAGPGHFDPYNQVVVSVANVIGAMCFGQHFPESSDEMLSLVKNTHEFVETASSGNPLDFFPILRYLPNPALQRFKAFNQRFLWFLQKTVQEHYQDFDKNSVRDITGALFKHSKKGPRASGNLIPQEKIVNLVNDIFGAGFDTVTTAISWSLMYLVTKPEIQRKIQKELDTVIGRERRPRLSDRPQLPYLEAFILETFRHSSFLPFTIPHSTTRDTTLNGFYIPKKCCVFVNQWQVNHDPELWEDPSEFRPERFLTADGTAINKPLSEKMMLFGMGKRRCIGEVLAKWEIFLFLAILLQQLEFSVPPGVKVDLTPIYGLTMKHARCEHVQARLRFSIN

CYP1A2 [2] = biological target: T1, CYP1A2; test: biochemical
CYP1A2 [3] = settings: cited from earlier work
CYP1A2 [4] = biological target: T1, CYP1A2; test: Inhibition matrix assay; assay type: biochemical
CYP1A2 [5] = settings: human liver microsomes, ethoxyresorufin as substrate; cited from earlier work
CYP1A2 [6] = biological target: T1, CYP1A2
CYP1A2 [7] = biological target: T1, CYP1A2; test: in vitro
CYP1A2 [8] = biological target: T1, CYP1A2; test: NADPH-dependent and GSH- and SOD-independent inactivation; assay type: biochemical; settings: 8 μM isopimpinellin
CYP1A2 [9] = biological target: T1, CYP1A2; test: Substrate protection; assay type: biochemical; settings: 1.2 μM (KI) isopimpinellin
CYP1A2 [10] = biological target: T1, CYP1A2; test: Irreversibility of inactivation; assay type: biochemical
CYP1A2 [11] = biological target: T1, CYP1A2; test: Partition ratio by titration of the enzyme with the inactivator; assay type: biochemical
[12] = human liver microsomes, various substrates

SMILES: O=c1ccc2ccc3occc3c2o1 [angelicin]
- significance of hCYP1A2 inhibition (CYP1A2 [1]; p < 0.05, tested 0.5-150 μM): significant hCYP1A2 inhibition at all tested concentrations
- IC50 (CYP1A2 [2]): 9.6 µM

SMILES: CC(C)=CCOc1c2occc2cc2ccc(=O)oc12 [imperatorin]
- Ki (CYP1A2 [4]): 0.007 µM
- mode of inhibition (CYP1A2 [4]; Dixon plots of the kinetics data): mixed inhibition
- concentrations at which hCYP1A2 was significantly inhibited (CYP1A2 [1]): ≥ 5 nM
- IC50 (CYP1A2 [5]): 0.38 ± 0.12 µM
- IC50 (CYP1A2 [2]): 0.02 µM

SMILES: COc1c2ccoc2c(OC)c2oc(=O)ccc12 [isopimpinellin]
- t1/2 (time required for half the enzyme molecules to be inactivated) (CYP1A2 [6]): 2.05 ± 0.22 min
- KI (inactivation) (CYP1A2 [7]): 1.2 µM
- kinact (CYP1A2 [7]): 0.00567 s⁻¹
- kinact/KI (CYP1A2 [7]): 5000 M⁻¹ s⁻¹
- effect of GSH on inactivation (CYP1A2 [8]; GSH 250 μM): GSH failed to protect the hCYP1A2 inactivation
- effect of SOD on inactivation (CYP1A2 [8]; SOD 1000 units): SOD did not prevent hCYP1A2 from inactivation, but rather enhanced the inactivation
- effect of NADPH on inactivation (CYP1A2 [8]; with and without 250 μM NADPH): the lack of NADPH results in the loss of the inhibitory effect
- activity of hCYP1A2 (CYP1A2 [9]; 0 μM methoxyresorufin in preincubation): 31.8%
- activity of hCYP1A2 (CYP1A2 [9]; 0.4 μM methoxyresorufin in preincubation): 33.9%
- activity of hCYP1A2 (CYP1A2 [9]; 2.0 μM methoxyresorufin in preincubation): 36.9%
- activity of hCYP1A2 (CYP1A2 [9]; 10 μM methoxyresorufin in preincubation): 65.4%
- concentrations at which hCYP1A2 was significantly inhibited (CYP1A2 [1]): ≥ 50 nM
- activity remaining pre- and post-dialysis (CYP1A2 [10]; 6.4 μM, one assay with six replicates (assay development)): 24 ± 2%
- activity recovered after dialysis (CYP1A2 [10]; 8 μM, after 20 h of dialysis): approximately 21%
- IC50 (CYP1A2 [5]): 0.86 ± 0.18 µM
- IC50 (CYP1A2 [2]): 0.46 µM
- partition ratio (CYP1A2 [11]; 0.25-64 μM, preincubation 30 min, extrapolated from lower ratio data points): 8
- remaining CYP1A2 activity at high inactivator to enzyme ratios (CYP1A2 [11]; five highest concentration ratios of isopimpinellin to hCYP1A2): no remaining CYP1A2 activity

SMILES: Cc1cc2cc3c(C)cc(=O)oc3c(C)c2o1 [trioxsalen, reference compound]
- Ki (CYP1A2 [4]): 0.1 µM
- mode of inhibition (CYP1A2 [4]): mixed inhibition
- IC50 (CYP1A2 [2]): 0.79 µM
